What all share (format): cell-based
One experiment has as its target T1, human 5-HT2A receptor (Homo sapiens, UniProt P28223).
T1 construct: host or cells: CHO-K1
In words: 5HT2A Antagonism Assay (Euroscreen FAST-05051), IP-One HTRF. As for the experimental part:
5HT2A Antagonism Assay Protocol (Euroscreen FAST-05051)
CHO-K1 cells expressing the human 5-HT2A receptor grown to mid-log phase in culture media without antibiotics, were detached with PBS-EDTA, centrifuged, and resuspended in the IP-One Gq kit (Cisbio Bioassays, 62IPAPEC) stimulation buffer.
For antagonist testing in a 384 well plate: 5 μl of cells (20,000 cells) were mixed with 5 μl of a mix of test compound and reference agonist (for a final assay concentration corresponding to its EC80) diluted in stimulation buffer. The plate was incubated for 60 minutes at 37° C. in a humidified atmosphere of 95% air with 5% CO2, then 5 μL of IP1-d2 and anti-IP1 cryptate detection reagents were added to each well, the plates were incubated for about 1 hour at about room temperature. Fluorescence ratios are measured according to the manufacturer's specification (IP-One Gq kit (Cisbio Bioassays, 62IPAPEC).
Dose response curves were performed in parallel with reference compounds (e.g., α-methyl-5-HT. Compounds were tested at the following nanomolar concentrations, in duplicate: 0.3 nM, 1 nM, 3 nM, 10 nM, 30 nM, 100 nM, 300 nM, 1,000 nM, 3,000 nM, and 10,000 nM
For orientation: In TR-FRET formats the signal depends on donor and acceptor labels being close together.

The target in another experiment is T2, human TAAR1 receptors (Homo sapiens, UniProt Q96RJ0).
T2 construct: host or cells: CHO-K1
T2 sequence (Q96RJ0 1-339): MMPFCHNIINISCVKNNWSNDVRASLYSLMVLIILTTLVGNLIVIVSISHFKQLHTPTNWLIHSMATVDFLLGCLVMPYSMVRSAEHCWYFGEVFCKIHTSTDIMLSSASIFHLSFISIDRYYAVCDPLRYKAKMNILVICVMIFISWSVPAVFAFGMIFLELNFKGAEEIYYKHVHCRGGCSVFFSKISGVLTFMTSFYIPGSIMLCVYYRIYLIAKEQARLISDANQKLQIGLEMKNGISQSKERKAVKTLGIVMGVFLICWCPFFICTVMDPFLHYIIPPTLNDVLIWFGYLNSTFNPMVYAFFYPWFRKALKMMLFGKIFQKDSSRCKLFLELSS
In words: TAAR1 Agonism Assay: cAMP HTRF assay for Gs coupled receptor TAAR1 (Euroscreen FAST-0987C). As to conditions: CHO-K1 cells expressing human TAAR1, cAMP HTRF. As for the experimental part: Dose response curves were performed in parallel with the reference compound, tyramine.
For the TAAR1 agonist test (performed in a 384 well plate): 5 μl of cells (about 3,000 cells) were mixed with 5 μl of the test compound diluted in assay buffer and then incubated for about 30 minutes at about room temperature. After addition of the lysis buffer containing cAMP-d2 and anti-cAMP cryptate detection reagents, plates were incubated for about a 1-hour incubation at about room temperature, and fluorescence ratios were measured according to the manufacturer specifications, with the HTRF (Homogeneous Time Resolved Fluorescence) kit (cAMP Gs dynamic kit, Cisbio Bioassays, 62AM4PEJ).
(§1) Compounds were tested at the following nanomolar concentrations, in duplicate: 0.3 nM, 1 nM, 3 nM, 10 nM, 30 nM, 100 nM, 300 nM, 1,000 nM, 3,000 nM, and 10,000 nM.

In the next experiment the target is T3, human 5-HT7 receptor (Homo sapiens, UniProt P34969).
T3 construct: host or cells: CHO-K1
The experiment in a line: 5HT7 Antagonism Assay (Euroscreen FAST-0499C), cAMP HTRF. As to conditions: CHO-K1 cells expressing human 5-HT7, reference agonist at EC80, cAMP HTRF. As for the experimental part: 5HT7 Antagonism Assay Protocol (Euroscreen FAST-0499C)
CHO-K1 cells expressing the human 5-HT7 receptor, grown prior to the test in media without antibiotic, were detached by gentle flushing with PBS-EDTA (5 mM EDTA), recovered by centrifugation and resuspended in assay buffer (Krebs-Ringer HEPES buffer: 5 mM KCl, 1.25 mM MgSO4, 124 mM NaCl, 25 mM HEPES, 13.3 mM Glucose, 1.25 mM KH2PO4, 1.45 mM CaCl2), 0.5 g/l BSA, supplemented with 1 mM IBMX).
Dose response curves were performed in parallel with reference compounds (e.g., 5-carboxamidotryptamine (5-CT)).
For antagonist testing in a 384 well plate: 5 μl of cells (3000 cells) were mixed with 5 μl of a mix of test compound and reference agonist (for a final assay concentration corresponding to its EC80) diluted in assay buffer. The plates were then incubated for about 30 minutes at about room temperature. After addition of the lysis buffer containing cAMP-d2 and anti-cAMP cryptate detection reagents, plates were incubated for about 1 hour at about room temperature, and fluorescence ratios were measured according to the manufacturer's specifications (HTRF kit: cAMP Gs dynamic kit, Cisbio Bioassays, 62AM4PEJ).
as §1

Where [1] appears, read: read-out: 5-HT2A (IC50), CHO-K1 cells expressing human 5-HT2A, reference agonist at EC80, IP-One.
Setting [2] is: 5-HT2A (IC50), CHO-K1 cells expressing human 5-HT2A, reference agonist at EC80, IP-One.
Where [3] appears, read: CHO-K1 cells expressing human 5-HT2A, reference agonist at EC80, IP-One, read-out: 5-HT2A (IC50).

Where two headings read alike, the source gives them in different places. A value given as a limit tells only on which side of the number the result lay.

T3 sequence (P34969 whole entry): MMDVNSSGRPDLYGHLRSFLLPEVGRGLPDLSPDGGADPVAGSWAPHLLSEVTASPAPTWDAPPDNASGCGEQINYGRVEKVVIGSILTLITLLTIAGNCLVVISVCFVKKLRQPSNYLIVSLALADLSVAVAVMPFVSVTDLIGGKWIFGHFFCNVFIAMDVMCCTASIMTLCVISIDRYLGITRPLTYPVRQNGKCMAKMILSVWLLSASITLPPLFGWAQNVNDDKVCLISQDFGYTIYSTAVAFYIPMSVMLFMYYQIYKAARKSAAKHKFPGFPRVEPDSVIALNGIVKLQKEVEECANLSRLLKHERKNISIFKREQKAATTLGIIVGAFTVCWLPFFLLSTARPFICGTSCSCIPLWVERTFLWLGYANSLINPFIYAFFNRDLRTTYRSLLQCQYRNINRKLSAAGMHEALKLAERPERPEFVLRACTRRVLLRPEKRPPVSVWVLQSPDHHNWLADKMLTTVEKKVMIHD
T1 sequence (P28223 whole entry): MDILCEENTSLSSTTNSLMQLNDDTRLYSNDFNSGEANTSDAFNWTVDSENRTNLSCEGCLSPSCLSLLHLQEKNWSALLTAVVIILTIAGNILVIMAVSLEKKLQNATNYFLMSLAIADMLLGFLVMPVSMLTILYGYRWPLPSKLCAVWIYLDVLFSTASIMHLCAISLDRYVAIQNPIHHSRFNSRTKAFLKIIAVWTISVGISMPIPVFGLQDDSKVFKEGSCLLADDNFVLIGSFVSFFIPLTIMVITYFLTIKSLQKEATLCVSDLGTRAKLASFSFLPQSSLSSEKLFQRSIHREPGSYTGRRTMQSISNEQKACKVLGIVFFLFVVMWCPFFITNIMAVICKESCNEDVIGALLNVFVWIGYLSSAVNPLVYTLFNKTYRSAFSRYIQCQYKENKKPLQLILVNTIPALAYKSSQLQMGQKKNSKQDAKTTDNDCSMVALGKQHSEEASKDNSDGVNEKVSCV

A word on the IC50: it is the concentration that gives 50% inhibition. As usually defined, the EC50 is the midpoint of the concentration-response curve. A lower EC50 goes with higher potency in that assay. Consider `NCC1Cc2ncc(F)cc2Oc2ccccc21` (single isomer, unassigned) [Compound 40, (S*)-(3-fluoro-10,11-dihydrobenzo[6,7]oxepino[3,2-b]pyridin-10-yl)methanamine], for which the results for the IC50 on human 5-HT2A receptor (setting [1]) and on human 5-HT7 receptor were less than 1 µM and no less than 10 µM, respectively. Also, on human TAAR1 receptors, the EC50 is less than 1 µM.
On to `NCC1Oc2ccc(F)cc2Oc2ccccc21` (single isomer, unassigned) [Compound 41, (R*)-(7-fluoro-11H-dibenzo[b,e][1,4]dioxepin-11-yl)methanamine], for which the figures for the half-inhibitory concentration (IC50) on human 5-HT2A receptor (setting [2]) and on human 5-HT7 receptor were less than 1 µM and 1 to 10 µM, respectively. This compound also had an EC50 on human TAAR1 receptors of less than 1 µM.
As for `NCC1Oc2ccc(F)cc2Oc2ccccc21` (single isomer, unassigned) [Compound 42, (S*)-(7-fluoro-11H-dibenzo[b,e][1,4]dioxepin-11-yl)methanamine], the IC50 at human 5-HT2A receptor (setting [1]) is less than 1 µM; at human 5-HT7 receptor it was no less than 10 µM. Moreover, the EC50 at human TAAR1 receptors is less than 1 µM.
For the compound `CNCC1Oc2ccc(F)cc2Oc2ccccc21` (single isomer, unassigned) [Compound 43, (R*)-1-(7-fluoro-11H-dibenzo[b,e][1,4]dioxepin-11-yl)-N-methylmethanamine], the IC50 at human 5-HT2A receptor (setting [2]) and at human 5-HT7 receptor was less than 1 µM each time. In addition, at human TAAR1 receptors, the EC50 is less than 1 µM.
On to `CNCC1Oc2ccc(F)cc2Oc2ccccc21` (single isomer, unassigned) [Compound 44, (S*)-1-(7-fluoro-11H-dibenzo[b,e][1,4]dioxepin-11-yl)-N-methylmethanamine], for which the concentration for half-maximal inhibition (IC50) on human 5-HT2A receptor (setting [1]) and at human 5-HT7 receptor was less than 1 µM throughout. This compound came in with a concentration for a half-maximal effect (EC50) at human TAAR1 receptors of less than 1 µM.
As to `CNCC1Oc2ccccc2Oc2ncccc21` (single isomer, unassigned) [Compound 45, (R*)-1-(5H-benzo[2,3][1,4]dioxepino[5,6-b]pyridin-5-yl)-N-methylmethanamine], the concentration for half-maximal inhibition (IC50) on human 5-HT2A receptor (setting [3]) was 1 to 10 µM; at human 5-HT7 receptor, no less than 10 µM. The compound also came in with an EC50 at human TAAR1 receptors greater than 10 µM.
For the compound `CNCC1Oc2ccccc2Oc2ncccc21` (single isomer, unassigned) [Compound 46, (S*)-1-(5H-benzo[2,3][1,4]dioxepino[5,6-b]pyridin-5-yl)-N-methylmethanamine], the IC50 at human 5-HT2A receptor (setting [3]) is 1 to 10 µM; on human 5-HT7 receptor, no less than 10 µM. On human TAAR1 receptors, this compound registered an EC50 of 1 to 10 µM.
Turning to `NCC1Oc2ccccc2Oc2ncccc21` (single isomer, unassigned) [Compound 47, (R*)-(5H-benzo[2,3][1,4]dioxepino[5,6-b]pyridin-5-yl)methanamine], the IC50 was greater than 10 µM on human 5-HT2A receptor (setting [3]) and no less than 10 µM at human 5-HT7 receptor. At human TAAR1 receptors, the EC50 lay in the range of 1 to 10 µM.
The matching figures for `NCC1Oc2ccccc2Oc2ncccc21` (single isomer, unassigned) [Compound 48, (S*)-(5H-benzo[2,3][1,4]dioxepino[5,6-b]pyridin-5-yl)methanamine]: greater than 10 µM, no less than 10 µM and 1 to 10 µM.
Regarding `NCC1Oc2ccccc2Oc2cnccc21` (single isomer, unassigned) [Compound 49, (R*)-(5H-benzo[2,3][1,4]dioxepino[5,6-c]pyridin-5-yl)methanamine], the IC50 is greater than 10 µM at human 5-HT2A receptor (setting [2]) and no less than 10 µM on human 5-HT7 receptor. At human TAAR1 receptors, the EC50 is 1 to 10 µM.
Take `NCC1Oc2ccccc2Oc2cnccc21` (single isomer, unassigned) [Compound 50, (S*)-(5H-benzo[2,3][1,4]dioxepino[5,6-c]pyridin-5-yl)methanamine]: the IC50 at human 5-HT2A receptor (setting [1]) was greater than 10 µM; on human 5-HT7 receptor, no less than 10 µM. Further, on human TAAR1 receptors, the EC50 is less than 1 µM.
Turning to `CNCC1Oc2ccccc2Oc2cnccc21` (single isomer, unassigned) [Compound 51, (R*)-1-(5H-benzo[2,3][1,4]dioxepino[5,6-c]pyridin-5-yl)-N-methylmethanamine], the IC50 on human 5-HT2A receptor (setting [3]) is 1 to 10 µM; on human 5-HT7 receptor, no less than 10 µM. The compound also gave an EC50 at human TAAR1 receptors of 1 to 10 µM.

The record behind these values is US20240245658A1, “TAAR1 AND SEROTONIN MODULATORS, AND PHARMACEUTICAL COMPOSITIONS, AND METHODS OF USE THEREOF” (Sunovion Pharmaceuticals Inc., priority 2021, published 2024).
